Measured values: paper PMC9953967, “Discovery of Novel Bioactive Tanshinones and Carnosol Analogues against Breast Cancer” (Cancers, 2023)
Where two headings read alike, the source gives them in different places.

Experiments:
[1] = test system: several cell models of breast cancer; parameters: method as in PMID 26241873; conditions: read-out: EC50 antiproliferative activity; cited from earlier work
[2] = test system: MDA-MB231; parameters: method as in PMID 26241873; conditions: cited from earlier work
[3] = test system: T47D; assay: CellTiterGlo luminescent cell viability assay, T47D; conditions: Homo sapiens, 72 h
Procedure: (§1) A cell proliferation assay was performed using the CellTiterGlo (CTG, Promega Corp., Madison, WI, USA) luminescent cell viability assay kit. MDA-MB231 cells were seeded into 96-well plates at concentrations experimentally determined to ensure logarithmic growth during the duration of the experiment and to prevent adverse effects on cell growth by DMSO exposure. The plates were incubated 12 h before treatment. […] The final concentration of DMSO was 0.3% (v/v) in each well. The positive control used was staurosporine (1 μM) and a toxic quinolone generated inhouse, as kill-all controls, and the negative control used was cholesterol. […] The plates were incubated for 72 h and then quenched with CTG at 50 μL per well at RT. Plates were then incubated at RT for 20 min and centrifuged at 1000 rpm for 1 min. Luminescence was read on a CLARIOstar Plus plate reader (BMG LabTech, Ortenberg, Germany). The cell viability assay was also performed in the non-neoplastic cell line BJ, which was incubated with compounds, as mentioned in cell viability assay (CTG). The mean luminescence of each experimental treatment group was normalized as a percentage of the mean intensity of untreated controls. EC50 values were calculated from dose-response curve-fitting via non-linear regression using GraphPad Prism 9.0 (GraphPad Software, San Diego, CA, USA) (Figure S1).

[4] = test system: MCF07; assay: CellTiterGlo luminescent cell viability assay, MCF07
Procedure: as §1

[5] = test system: SUM149; assay: CellTiterGlo luminescent cell viability assay, SUM149
Procedure: as §1

[6] = test system: MDA-MB231; assay: CellTiterGlo luminescent cell viability assay, MDA-MB231
Procedure: as §1

[7] = CellTiterGlo cell viability assay, non-neoplastic cell line BJ; conditions: human, BJ cells (non-neoplastic, non-tumorigenic cell line), Cytotoxicity IC50 BJ, 72 h incubation, CellTiter-Glo, mean ± SD
Procedure: as §1

[8] = in vitro; conditions: human, Cytotoxicity IC50 BJ
Procedure: as §1

[9] = test system: HBL-100 and T-47D; parameters: method as in PMID 30840453; conditions: two breast cancer cell lines HBL-100 and T-47D, SRB assay; cited from earlier work
[10] = test system: MDA-MB231; parameters: method as in PMID 30793595; conditions: read-out: Antiproliferative activity, sulforhodamine B assay, MDA-MB231; cited from earlier work
[11] = test system: MCF-7; parameters: method as in PMID 30793595; conditions: read-out: Antiproliferative activity, sulforhodamine B assay, MCF-7; cited from earlier work
[12] = test system: non-tumorigenic cell line BJ; assay: CellTiterGlo cell viability assay, non-neoplastic cell line BJ; conditions: read-out: Cytotoxicity IC50 BJ, 72 h incubation, CellTiter-Glo, mean ± SD
Procedure: as §1

[13] = Ferric Reducing Antioxidant Power (FRAP) assay; conditions: compounds at 100 μM; positive control ascorbic acid 1 mM
Procedure: An antioxidant evaluation of the compounds was performed using the Ferric Reducing Antioxidant Power (FRAP) Assay Colorimetric Kit (ab234626, Abcam, Cambridge, UK) following the manufacturers’ instructions. Briefly, FRAP reagents were mixed with compounds at 100 μM in 96-well plates, and then reacted for 10 min at 37 °C in the dark. Ascorbic acid was provided as the positive control (1mM). After incubation, the absorbance was read using a microplate reader (CLARIOstar Plus, BMG LabTech, Ortenberg, Germany) at 594 nm. FRAP [19] was quantified using a reagent calibration curve (Y = 0.039X + 0.002, R^2 = 0.9978) and calculated as nmol Ferrous equivalents.

[14] = test system: MDA-MB231; assay: Propidium iodide (PI) assay with Hoechst counterstain; format: cell-based, human; conditions: MDA-MB231, 48 h, 25 μM
Procedure: Propidium iodide (PI) assay was performed to complement the viability assay. The assay was conducted with MDA-MB231 cancer cell models seeded in 48-well plates (Clear, Corning#3548) and cultured for 12 h, then treated for 48 h. Cells were fixed with cold methanol, and stained (0.4% PI, Sigma-Aldrich, Co., St. Louis, MO, USA). Fluorescence was measured and analyzed using Cytation 1 Image Reader (BioTek, Winooski, VT, USA). Cell viability was calculated/plotted as the percentage of surviving cells after treatment relative to the vehicle. For qualitative analysis and visualization, doubling staining was performed using Hoechst dye to stain nuclei.

[15] = test system: SUM149
Procedure: as §1

[16] = test system: MCF07
Procedure: as §1

[17] = test system: non-tumorigenic cell line BJ; conditions: human, 72 h
Procedure: as §1

[18] = test system: T47D; conditions: human, 72 h
Procedure: as §1

[19] = read-out: Cytotoxicity IC50 T47D, 72 h incubation, CellTiter-Glo, mean ± SD
[20] = Homo sapiens, 72 h, read-out: Cytotoxicity IC50 MCF07, 72 h incubation, CellTiter-Glo, mean ± SD
[21] = Homo sapiens, SUM149, 72 h, read-out: Cytotoxicity IC50 SUM149
[22] = Homo sapiens, MDA-MB-231, 72 h, read-out: Cytotoxicity IC50 MDA-MB231, 72 h incubation, CellTiter-Glo, mean ± SD
[23] = read-out: Cytotoxicity IC50 MDA-MB231, 72 h incubation, CellTiter-Glo, mean ± SD

SMILES | EC50 [1] | IC50 [3, 19] | IC50 [4, 20] | IC50 [5, 21] | IC50 [6, 22] | IC50 at 72 h [7] | IC50 at 72 h [8] | IC50 [12] | further results
CC(C)c1cc2c(cc1O)[C@@]1(C)CCCC(C)(C)[C@@H]1CC2 [Compound 1, ferruginol] | < 50 µM | > 100 µM | 19 ± 1.5 µM | > 50 µM | 8.3 ± 1.4 µM | > 50 µM |  |  | Inhibition of cell cycle progression at the G2/M phase [2]: 19%; Cell cycle arrest at G0/G1 ([2]; positive control 43%, negative control 48.36%): 50.76%
CC(C)c1cc2c(cc1O)[C@@]1(C)CCC[C@@](C)(CN)[C@@H]1CC2 [Compound 2, 12-hydroxydehydroabietylamine] |  | > 50 µM | 10 ± 1.5 µM | 4.4 ± 0.3 µM | 5.1 ± 0.6 µM |  | 75 ± 6.2 µM |  | 
CC(C)c1cc2c(c(O)c1O)[C@@]13CCCC(C)(C)[C@@H]1C[C@@H]2OC3=O [Compound 4, carnosol] | < 50 µM |  |  |  |  |  |  |  | 
COC(=O)[C@]1(C)CCC[C@]2(C)c3cc(O)c(C(C)C)cc3CC[C@@H]12 [Compound 5, Methyl 12-hydroxyabieta-8,11,13-trien-18-oate] |  |  |  |  |  |  |  |  | GI50 [9]: 9.7 to 19 µM; IC50 [10]: 18.6 µM; IC50 [11]: 5.9 µM
CC(C)c1cc2c(cc1O)[C@@]1(C)CCC[C@@](C)(CN3C(=O)c4ccccc4C3=O)[C@@H]1CC2 [Compound 6, 18-(phthalimid-2-yl)ferruginol] |  |  |  |  | 8.22 ± 0.47 µM | 74.8 ± 5.3 µM |  | 74.8 ± 5.3 µM | IC50 ([3]; read-out: Cytotoxicity IC50 T47D): 29.2 ± 1.5 µM; IC50 ([4]; Homo sapiens, 72 h, read-out: Cytotoxicity IC50 MCF07): 13 ± 0.6 µM; IC50 ([5]; Homo sapiens, SUM149, 72 h, read-out: Cytotoxicity IC50 SUM149, 72 h incubation, CellTiter-Glo, mean ± SD): 4.45 ± 0.2 µM; IC50 ([5]; read-out: Cytotoxicity IC50 SUM149, 72 h incubation, CellTiter-Glo, mean ± SD): 4.4 ± 0.2 µM; IC50 [6, 23]: 8.2 ± 0.5 µM
COC(=O)[C@]1(C)CCC[C@]2(C)C3=C(C=C(C(C)C)C(=O)C3=O)CC[C@@H]12 [Compound 7, Methyl 11,12-Dioxo-abieta-8,13-dien-18-oate] |  | 14.1 ± 0.5 µM | 8.29 ± 0.93 µM | 1.3 ± 0.6 µM | 3.95 ± 0.8 µM | 56.5 ± 6.1 µM |  | 56.5 ± 6.1 µM | Antioxidant potential (FRAP) [13]: significant antioxidant potential; IC50 ([4]; read-out: Cytotoxicity IC50 MCF07, 72 h incubation, CellTiter-Glo, mean ± SD): 8.3 ± 0.9 µM; IC50 [6, 23]: 3.9 ± 0.8 µM
CC(C)C1=CC2=C(C(=O)C1=O)[C@@]1(C)CCC[C@@](C)(CN3C(=O)c4ccccc4C3=O)[C@@H]1CC2 [Compound 8, 11,12-Dioxo-N,N-(phthaloyl)dehydroabietylamine] |  | 18.7 ± 0.3 µM | 2.3 ± 1.1 µM | 1.5 ± 0.4 µM | 2.8 ± 0.4 µM | 35.4 ± 5 µM |  | 35.4 ± 5 µM | Dose-dependent cell death (PI staining) [14]: clearly indicates this dependency
COC(=O)[C@]1(C)CCC[C@]2(C)c3c(cc(C(C)C)c(O)c3O)CC[C@@H]12 [Compound 9, Methyl 11,12-Dihydroxy-dehydroabietate] |  | 14.4 ± 0.6 µM | > 50 µM | > 50 µM | 9.4 ± 0.4 µM |  | 57.6 ± 3 µM |  | Antioxidant potential (FRAP) [13]: significant antioxidant potential; Cytotoxicity IC50 SUM149 [15]: removed the activity; Cytotoxicity IC50 MCF07 [16]: removed the activity; IC50 [17]: 57.6 ± 3 µM; IC50 [10]: 2.7 µM; IC50 [11]: 2.8 µM
CC(C)c1cc2c(c(O)c1O)[C@@]1(C)CCC[C@@](C)(CN3C(=O)c4ccccc4C3=O)[C@@H]1CC2 [Compound 10, 11,12-Dihydroxy-N,N-(phthaloyl)dehydroabietylamine] |  | 8.17 ± 0.44 µM | 4.6 ± 0.6 µM | 1.8 ± 0.2 µM | 2.8 ± 0.2 µM |  | 32.5 ± 5 µM |  | IC50 [18]: 8.2 ± 0.4 µM; IC50 [17]: 32.5 ± 5 µM
CC(C)c1ccc2c(c1)CC[C@H]1[C@](C)(CN)CCC[C@]21C [dehydroabietylamine] | < 50 µM |  |  |  |  |  |  |  | 
